The term LOAEL denotes the lowest dose or exposure tested at which an adverse effect was seen. What is called NOAEL is the highest dose or exposure tested at which no adverse effect was seen.

Series [1] deals with dog. As to conditions: Chronic toxicity; beagle; Oral; Gavage/Intubation; dose end: 52 week; group: systemic; systemic / in life observation / body weight / body weight gain + systemic / in life observation / clinical signs / emesis + systemic / in ….
The test system of series [2] is mouse. As to conditions: Combined chronic toxicity/carcinogenicity; b6c3f1; Oral; Feed; dose end: 24 month; group: systemic; systemic / pathology microscopic / liver / accentuated lobular pattern.
The test system of series [3] is rat. The settings on record: Subchronic oral toxicity in rodents, fischer, Feed, dose end: 90 day, group: systemic.
Series [4] has as its system rat. As to conditions: Prenatal developmental toxicity study, sprague dawley, Oral, Gavage/Intubation, dose end: 15 GD, group: maternal.
The subject of series [5] is dog. As to conditions: Chronic toxicity, beagle, Oral, Capsule, dose end: 53 week, group: systemic.
Series [6] has as its system rat. As to conditions: Multigenerational reproductive toxicity study, sprague dawley, Oral, Feed, dose end: 2 generation.
Series [7] has as its system dog. The settings on record: Subchronic oral toxicity in nonrodent, beagle, Capsule, dose end: 13 week, group: systemic.
The subject of series [8] is rat. As to conditions: Subchronic oral toxicity in rodents, fischer, Feed, dose end: 3 month, group: systemic, systemic / organ weight / liver / absolute + systemic / organ weight / liver / relative to body weight + systemic / pathology microscopic / ….
For series [9], the system named is mouse. As to conditions: Carcinogenicity, b6c3f1, Oral, Feed, dose end: 2 year, group: systemic.
The test system of series [10] is dog. The settings on record: Subchronic oral toxicity in nonrodent, beagle, Feed, dose end: 90 day, group: systemic, systemic / hematology / hematocrit (hct) / hematocrit (hct) + systemic / hematology / hemoglobin (hgb) / hemoglobin (hgb) + systemic / ….
Series [11] relates to rat. The settings on record: Subchronic oral toxicity in rodents, sprague dawley, Feed, dose end: 90 day, group: systemic, systemic / in life observation / clinical signs / altered breathing rate + systemic / in life observation / food consumption / food ….
The subject of series [12] is mouse. The settings on record: Carcinogenicity, other, Oral, Gavage/Intubation, dose end: 6 month, group: systemic.
For series [13], the system named is mouse. As to conditions: Carcinogenicity, cd1, Oral, Gavage/Intubation, dose end: 16 PND, group: systemic.
Series [14] concerns mouse. As to conditions: Carcinogenicity; other; Oral; Gavage/Intubation; dose end: 6 month; group: systemic; systemic / in life observation / clinical signs / abnormal gait + systemic / in life observation / clinical signs / ataxia + systemic / in ….
The test system of series [15] is mouse. As to conditions: Carcinogenicity, other, Oral, Gavage/Intubation, dose end: 6 month, group: systemic. The source holds these as a separate data set.
Series [16] deals with rat. The settings on record: Combined chronic toxicity/carcinogenicity, wistar, Oral, Feed, dose end: 24 month, group: systemic.
The test system of series [17] is rat. The settings on record: Carcinogenicity, fischer, Inhalation, Whole-Body, dose end: 105 week, group: systemic.
The test system of series [18] is rat. As to conditions: Subchronic inhalation toxicity, fischer, Whole-Body, dose end: 14 week, group: systemic.
Series [19] deals with mouse. As to conditions: Carcinogenicity, b6c3f1, Inhalation, Whole-Body, dose end: 105 week, group: systemic.
Series [20] concerns mouse. The settings on record: Subchronic inhalation toxicity, b6c3f1, Whole-Body, dose end: 14 week, group: systemic.
Where [21] appears, read: systemic / in life observation / body weight / body weight + systemic / in life observation / body weight / body weight gain.
The mark [22] stands for this setting: systemic / in life observation / body weight / body weight + systemic / in life observation / body weight / body weight gain + systemic / in….
Setting [23] is: systemic / organ weight / liver / relative to body weight + systemic / organ weight / kidney / relative to body weight.
The mark [24] stands for this setting: systemic / pathology microscopic / liver / pigmentation + systemic / clinical chemistry / alanine aminotransferase (alt/sgpt) / alanine ….
The mark [25] stands for this setting: group: offspring, systemic / in life observation / body weight / offspring (pup) weight.
Where [26] appears, read: group: offspring, systemic / in life observation / body weight / offspring (pup) weight + developmental / offspring survival late / viability index / ….
[27] abbreviates: group: parental, systemic / organ weight / liver / absolute + systemic / organ weight / liver / relative to body weight + systemic / pathology microscopic / ….
[28] abbreviates: group: reproductive, reproductive / offspring survival early / litter size / litter size.
Setting [29] is: systemic / pathology microscopic / spleen / pigmentation.
Setting [30] is: systemic / pathology microscopic / spleen / pigmentation + systemic / in life observation / clinical signs / emesis + systemic / pathology ….
[31] abbreviates: systemic / pathology microscopic / liver / hyperplasia + systemic / organ weight / liver / absolute + systemic / organ weight / liver / ….
[32] abbreviates: systemic / in life observation / clinical signs / body temperature + systemic / in life observation / clinical signs / dehydration + ….
[33] abbreviates: systemic / pathology microscopic / liver / hypertrophy.
The mark [34] stands for this setting: systemic / in life observation / body weight / body weight gain + systemic / in life observation / clinical signs / dehydration + systemic….
The mark [35] stands for this setting: systemic / clinical chemistry / alanine aminotransferase (alt/sgpt) / alanine aminotransferase (alt/sgpt) + systemic / clinical chemistry / ….
[36] abbreviates: systemic / clinical chemistry / cholesterol / cholesterol + systemic / clinical chemistry / cholesterol / cholesterol, direct ldl + systemic….
[37] abbreviates: systemic / organ weight / heart / absolute.
[38] abbreviates: systemic / pathology microscopic / kidney / hyperplasia + systemic / pathology microscopic / nose / atrophy + systemic / pathology ….
Setting [39] is: systemic / pathology microscopic / nose / atrophy + systemic / pathology microscopic / nose / hyperplasia + systemic / pathology microscopic….
Where [40] appears, read: systemic / in life observation / body weight / body weight + systemic / in life observation / body weight / body weight gain + systemic / ….
Setting [41] is: systemic / pathology microscopic / nose / metaplasia.
[42] abbreviates: systemic / in life observation / body weight / body weight + systemic / pathology microscopic / eye / degeneration + systemic / pathology ….
[43] abbreviates: systemic / in life observation / body weight / body weight + systemic / pathology microscopic / nose / degeneration + systemic / pathology ….
Where [44] appears, read: systemic / organ weight / heart / absolute + systemic / pathology microscopic / nose / degeneration + systemic / pathology microscopic / ….
Where [45] appears, read: systemic / pathology microscopic / nose / hyaline droplet + systemic / pathology microscopic / nose / degeneration.

For `Oc1ccccc1-c1ccccc1` [2-Phenylphenol], the LEL in [1] worked out at 300 mg/kg/day; in [2] it was 250 mg/kg/day; in series [3] (setting [23]) it was 377 mg/kg/day. Further, the LOAEL in series [1] was 300 mg/kg/day; in series [2], 250 mg/kg/day; in series [3] (setting [21]) it was 763 mg/kg/day. The results for the NEL in series [1], in series [2] and in series [3] (setting [23]) were 100 mg/kg/day, less than 250 mg/kg/day and less than 377 mg/kg/day, respectively. Besides, the no observed adverse effect level (NOAEL) in [1] is 100 mg/kg/day; in [2] it was less than 250 mg/kg/day; in series [3] (setting [22]), 377 mg/kg/day.

Turning to `CCCCN(CC)c1c([N+](=O)[O-])cc(C(F)(F)F)cc1[N+](=O)[O-]` [Benfluralin], the lowest observed adverse effect level (LOAEL) amounted to 1000 mg/kg/day in series [4] (setting [21]); 25 mg/kg/day in series [5] (systemic / pathology microscopic / liver / pigmentation); 74.4 mg/kg/day in series [6] (setting [25]); 68.1 mg/kg/day in series [6] (setting [27]); 401 mg/kg/day in [6] (setting [28]); 25 mg/kg/day in [7] (setting [29]). The lowest-observed-adverse-effect level (LOAEL) in series [8] is more than 522 mg/kg/day; in series [9] (systemic / pathology microscopic / liver / hyperplasia) it was 185 mg/kg/day. Moreover, the NEL in [4] (setting [22]) is 225 mg/kg/day; in [5] (setting [24]), 5 mg/kg/day; in series [6] (setting [26]) it was 7.3 mg/kg/day; in series [6] (setting [27]), 7.2 mg/kg/day; in [6] (setting [28]), 74.4 mg/kg/day; in [7] (setting [30]), 5 mg/kg/day. Further, the NEL was 3.23 mg/kg/day in series [8] and 36.4 mg/kg/day in series [9] (setting [31]). The NOAEL in [4] (setting [22]) turned out to be 475 mg/kg/day; in series [5] (setting [24]), 5 mg/kg/day; in [6] (setting [26]), 7.3 mg/kg/day; in [6] (setting [27]), 7.2 mg/kg/day; in [6] (setting [28]), 74.4 mg/kg/day; in series [7] (setting [30]), 5 mg/kg/day. In addition, the NOAEL in series [8] was not below 522 mg/kg/day; in series [9] (setting [31]), 36.4 mg/kg/day. Also, the LEL amounted to 475 mg/kg/day in [4] (systemic / in life observation / body weight / body weight + systemic / in life observation / food consumption / food consumption); 25 mg/kg/day in series [5] (setting [24]); 74.4 mg/kg/day in series [6] (setting [25]); 68.1 mg/kg/day in series [6] (setting [27]); 401 mg/kg/day in series [6] (setting [28]); 25 mg/kg/day in series [7] (setting [29]). For the same compound, the LEL in series [8] was 16.8 mg/kg/day; in series [9] (setting [31]) it was 185 mg/kg/day.

On to `O.O.O.O.O.O.O.O.O.O.[Na+].[Na+].[O-]B1OB2OB([O-])OB(O1)O2` [Borax], for which, in [10], the LEL worked out at 192 mg/kg/day, the LOAEL was found to be 192 mg/kg/day, the NEL stood at 22 mg/kg/day and the NOAEL stood at 22 mg/kg/day. For the same compound, in series [11], the LEL came to 770 mg/kg/day, the LOAEL came out at 770 mg/kg/day, the NEL was found to be 232 mg/kg/day and the no-observed-adverse-effect level (NOAEL) worked out at 232 mg/kg/day.

Consider `CCOC(=O)C(C)(C)Oc1ccc(Cl)cc1` [Clofibrate], for which the lowest observed adverse effect level (LOAEL) in series [12] (setting [32]) is more than 650 mg/kg/day; in series [13] (setting [34]), more than 500 mg/kg/day; in series [14], more than 500 mg/kg/day; in series [15] (setting [35]), more than 250 mg/kg/day. Also, the NOAEL is not below 650 mg/kg/day in series [12] (setting [32]), not below 500 mg/kg/day in series [13] (setting [34]), not below 500 mg/kg/day in series [14] and not below 250 mg/kg/day in series [15] (setting [35]). Besides, the LEL in [12] (setting [33]) amounted to 50 mg/kg/day; in series [13] (systemic / in life observation / clinical signs / palpable mass) it was 250 mg/kg/day; in series [14] it was 200 mg/kg/day; in [15] (setting [36]), 50 mg/kg/day. The NEL in series [12] (setting [33]) was less than 50 mg/kg/day; in series [13] (setting [34]) it was 100 mg/kg/day; in series [14], 50 mg/kg/day; in series [15] (setting [36]), less than 50 mg/kg/day.

As for `NCCO.O=C(Nc1ccc([N+](=O)[O-])cc1Cl)c1cc(Cl)ccc1O` [Clonitralid], the LOAEL in [16] (systemic / in life observation / body weight / body weight gain) was 410 mg/kg/day. In [16] (systemic / in life observation / body weight / body weight gain + systemic / clinical chemistry / alanine aminotransferase (alt/sgpt) / …), the NOAEL was 100 mg/kg/day. Moreover, in series [16] (setting [37]), the LEL was found to be 20 mg/kg/day and the NEL was less than 20 mg/kg/day.

Take `OCc1ccco1` [Furfuryl alcohol]: the LOAEL in [17] (setting [38]), in [18] (setting [40]), in series [19] (setting [42]) and in series [20] (setting [44]) was more than 32 ppm each time. In addition, the NOAEL in [17] (setting [38]), in [18] (setting [40]), in series [19] (setting [42]) and in series [20] (setting [44]) was not below 32 ppm each time. The LEL in series [17] (setting [39]), in series [18] (setting [41]), in series [19] (setting [43]) and in series [20] (setting [45]) was 2 ppm throughout. Besides, the NEL in series [17] (setting [39]), in series [18] (setting [41]), in series [19] (setting [43]) and in series [20] (setting [45]) was less than 2 ppm throughout.

These data come from EPA's ToxRefDB 2.
